13 molecules from PubChem BioAssay (NCI) can be followed below.

Structures are written as SMILES.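 Step 1: Grow cells in 96-well plates. Step 2: Expose to compound for 48 hours at 5 concentrations. Step 3: Interpolate endpoints linearly; if unreached, use highest concentration. TGI: concentration producing complete growth inhibition.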

Among the test systems are ACHN renal; HCC-2998 colon; IGROV1 ovarian; LOX IMVI melanoma; NCI-H23 lung; RPMI-8226 leukemia; SK-MEL-28 melanoma; TK-10 renal; UO-31 renal; T-47D breast.
What all share (experiment): growth of human tumour cells (NCI), 48 h

Take `CCN(CC)CCC(=O)Nc1ccc2c(c1)C(=O)c1ccc(NC(=O)CCN(CC)CC)cc1C2=O`: the TGI was 16.3 µM with ACHN renal; greater than 100 µM with HCC-2998 colon; 12 µM in the assay on IGROV1 ovarian; 6.19 µM with LOX IMVI melanoma; 23.2 µM in the assay with NCI-H23 lung; 19.9 µM in the assay on RPMI-8226 leukemia. Also, the TGI in the assay on SK-MEL-28 melanoma is 24.6 µM; with TK-10 renal, 18.9 µM; with UO-31 renal, greater than 100 µM.
On to `COc1ccc(N2C(=O)C3c4[nH]c5ccccc5c4C4CCC(C(C)(C)C)CC4C3C2=O)c(C)c1` (centres undefined), for which the TGI in the assay on ACHN renal, in the assay on HCC-2998 colon, in the assay on IGROV1 ovarian, in the assay on NCI-H23 lung, in the assay with RPMI-8226 leukemia and with SK-MEL-28 melanoma was greater than 100 µM in each case. In addition, the TGI with T-47D breast, with TK-10 renal and in the assay with UO-31 renal was greater than 100 µM throughout.
Turning to `COc1nc(N)c(C(=O)CCl)c(=O)n1C`, the TGI with ACHN renal turned out to be 48.5 µM; in the assay with HCC-2998 colon, 23 µM; with IGROV1 ovarian, 30.2 µM; in the assay with LOX IMVI melanoma, 20.8 µM; with RPMI-8226 leukemia it was 32.4 µM; in the assay with SK-MEL-28 melanoma, 26.4 µM. In addition, the TGI in the assay with TK-10 renal was found to be 29 µM; in the assay on UO-31 renal, 67 µM.
Turning to `Cc1cc(O)c2c(=O)c3ccccc3[nH]c2c1`, the TGI in the assay with ACHN renal was greater than 100 µM; in the assay on HCC-2998 colon, greater than 100 µM; in the assay with IGROV1 ovarian, 94.2 µM; with LOX IMVI melanoma, 64.3 µM; in the assay with NCI-H23 lung, greater than 100 µM; with RPMI-8226 leukemia, 41 µM. Besides, the TGI in the assay with SK-MEL-28 melanoma and in the assay on TK-10 renal was greater than 100 µM in each case.
On to `c1ccc(N=C2SC3=Nc4cccc5cccc(c45)N3C2=Nc2ccccc2)cc1`, for which the TGI with HCC-2998 colon, in the assay with IGROV1 ovarian, in the assay with NCI-H23 lung, in the assay with RPMI-8226 leukemia, in the assay with SK-MEL-28 melanoma and in the assay with T-47D breast was greater than 100 µM throughout. In addition, the TGI in the assay on UO-31 renal was greater than 100 µM.
As for `Cc1cccc2c(=O)cc(-c3ccccc3)[nH]c12`, the TGI in the assay on ACHN renal was greater than 100 µM; in the assay with HCC-2998 colon, 18.1 µM; in the assay with IGROV1 ovarian, greater than 100 µM; in the assay on LOX IMVI melanoma, greater than 100 µM; in the assay with NCI-H23 lung it was greater than 100 µM; in the assay with RPMI-8226 leukemia, greater than 100 µM. For the same molecule, the TGI in the assay with SK-MEL-28 melanoma, in the assay with TK-10 renal and with UO-31 renal was greater than 100 µM each time.
`CCOC(=O)C1=C(C)NC(=S)NC1c1ccccc1` (centres undefined): the TGI with ACHN renal is greater than 100 µM; in the assay on HCC-2998 colon, greater than 100 µM; in the assay on IGROV1 ovarian it was greater than 100 µM; in the assay with LOX IMVI melanoma, greater than 100 µM; in the assay on NCI-H23 lung, greater than 100 µM; in the assay on RPMI-8226 leukemia, greater than 65.6 µM. Also, the values for the TGI in the assay with SK-MEL-28 melanoma, with TK-10 renal and in the assay with UO-31 renal were greater than 100 µM, greater than 100 µM and greater than 57.1 µM, respectively.
For the molecule `Cc1cn(C2CC(N(O)C(N)=O)C(CO)O2)c(=O)[nH]c1=O` (centres undefined), the TGI in the assay on ACHN renal, in the assay on NCI-H23 lung, in the assay with RPMI-8226 leukemia, with SK-MEL-28 melanoma, in the assay with T-47D breast and with TK-10 renal was greater than 100 µM throughout. For the same molecule, in the assay on UO-31 renal, the TGI was greater than 100 µM.
On to `O=C1CCC23CC(C=CC=C12)n1c(=O)n(-c2ccccc2)c(=O)n13` (centres undefined), for which the TGI in the assay with HCC-2998 colon, in the assay on IGROV1 ovarian, with LOX IMVI melanoma, in the assay with NCI-H23 lung, in the assay with RPMI-8226 leukemia and in the assay on SK-MEL-28 melanoma was greater than 100 µM in each case. Moreover, in the assay with UO-31 renal, the TGI was greater than 100 µM.
As for `C[C@]12CC[C@H](O)CC1=CC[C@@H]1C2CC[C@]2(C)C(=O)N(N)C(=O)CC12` (some centres undefined), the TGI in the assay with ACHN renal, with HCC-2998 colon, with IGROV1 ovarian, in the assay on LOX IMVI melanoma, in the assay on NCI-H23 lung and with RPMI-8226 leukemia was greater than 100 µM throughout. Further, the TGI in the assay on SK-MEL-28 melanoma, with TK-10 renal and with UO-31 renal was greater than 100 µM each time.
For the molecule `CNS(=O)(=O)NNS(=O)(=O)c1ccc2ccccc2c1`, the TGI with ACHN renal, in the assay with HCC-2998 colon, in the assay with IGROV1 ovarian, in the assay with LOX IMVI melanoma, in the assay on NCI-H23 lung and in the assay on RPMI-8226 leukemia was greater than 100 µM each time. The TGI in the assay with SK-MEL-28 melanoma, in the assay on TK-10 renal and in the assay on UO-31 renal was greater than 100 µM each time.
Consider `CCC12C=CCN3CCC4(C(=C(C(=O)OC)[C@@H]1O)Nc1ccccc14)C32` (some centres undefined), for which the TGI in the assay on ACHN renal amounted to 3.3 µM; in the assay on HCC-2998 colon it was 3.06 µM; with IGROV1 ovarian, 3.9 µM; in the assay on LOX IMVI melanoma, 3.26 µM; in the assay on NCI-H23 lung it was 3.72 µM; with RPMI-8226 leukemia it was 6 µM. Further, the TGI in the assay on SK-MEL-28 melanoma amounted to 4.13 µM; with TK-10 renal, 5.37 µM; in the assay on UO-31 renal, 6.49 µM.
On to `N.N.N.N.O=[N+]([O-])[O-].[Co+3].[N-]=[N+]=[N-].[N-]=[N+]=[N-]`, for which the TGI in the assay on ACHN renal, in the assay on HCC-2998 colon, with IGROV1 ovarian, with LOX IMVI melanoma, in the assay with NCI-H23 lung and in the assay on RPMI-8226 leukemia was greater than 100 µM throughout. For the same molecule, the TGI in the assay with SK-MEL-28 melanoma, in the assay on TK-10 renal and in the assay on UO-31 renal was greater than 100 µM in each case.
